Measurements from PubChem BioAssay AID328 (DTP/NCI, 2004).
“And” between values parts separate entries of the source, which are not always exact repeats. Equal entries are not always repeated. Inconclusive results and toxic doses are left out. Rule for the calls: active = survival T/C of 150% or more; inactive = T/C below 125% in these data.

System: BDF1 mice, P388 leukemia ip, median survival T/C
Experiment: NCI In Vivo Anticancer Drug Screen. Data for tumor model P388 Leukemia (intraperitoneal) in B6D2F1 (BDF1) mice
Details: endpoint: median survival time, higher = longer survival
Summary of the method: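 Vehicle-dosed animals serve as the reference; survival of compound-dosed, tumour-implanted mice is divided by it.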

[1] = dose: 100.0 mg/kg/injection, schedule: Q01DX009 (ip), vehicle: Klucel (hydroxypropylcellulose) (HPC)
[2] = dose: 50.0 mg/kg/injection, schedule: Q01DX009 (ip), vehicle: saline with Tween-80
[3] = dose: 100.0 mg/kg/injection, schedule: Q01DX009 (ip), vehicle: saline with Tween-80
[4] = dose: 200.0 mg/kg/injection, schedule: Q01DX009 (ip), vehicle: saline with Tween-80
[5] = dose: 25.0 mg/kg/injection, schedule: Q04DX003 (ip), vehicle: saline with Tween-80
[6] = dose: 50.0 mg/kg/injection, schedule: Q04DX003 (ip), vehicle: saline with Tween-80
[7] = dose: 100.0 mg/kg/injection, schedule: Q04DX003 (ip), vehicle: saline with Tween-80
[8] = dose: 200.0 mg/kg/injection, schedule: Q04DX003 (ip), vehicle: saline with Tween-80
[9] = dose: 400.0 mg/kg/injection, schedule: Q01DX009 (ip), vehicle: saline with Tween-80
[10] = dose: 12.5 mg/kg/injection, schedule: Q01DX009 (ip), vehicle: saline with Tween-80
[11] = dose: 25.0 mg/kg/injection, schedule: Q01DX009 (ip), vehicle: saline with Tween-80
[12] = dose: 100.0 mg/kg/injection, schedule: Q01DX009 (ip), vehicle: saline
[13] = dose: 200.0 mg/kg/injection, schedule: Q01DX009 (ip), vehicle: saline

Measured: T/C

Cc1cc(C)c(S(=O)(=O)ON=C2c3ccccc3-c3ccccc32)c(C)c1
inactive: dose: 25.0 mg/kg/injection, schedule: Q01DX001 (ip), vehicle: Klucel (hydroxypropylcellulose) (HPC) 100 % of control | dose: 50.0 mg/kg/injection, schedule: Q01DX001 (ip), vehicle: Klucel (hydroxypropylcellulose) (HPC) 109 % of control | dose: 100.0 mg/kg/injection, schedule: Q01DX001 (ip), vehicle: Klucel (hydroxypropylcellulose) (HPC) 113 % of control | [1] 105 % of control | dose: 200.0 mg/kg/injection, schedule: Q01DX001 (ip), vehicle: Klucel (hydroxypropylcellulose) (HPC) 95 % of control | dose: 200.0 mg/kg/injection, schedule: Q01DX009 (ip), vehicle: Klucel (hydroxypropylcellulose) (HPC) 95 % of control | dose: 400.0 mg/kg/injection, schedule: Q01DX001 (ip), vehicle: Klucel (hydroxypropylcellulose) (HPC) 109 % of control | dose: 400.0 mg/kg/injection, schedule: Q01DX009 (ip), vehicle: Klucel (hydroxypropylcellulose) (HPC) 110 % of control

COc1ccc(/C(=C\S(C)(=O)=O)c2cccs2)cc1
inactive: [2] 88 % of control | [3] 91 % of control | [4] 105 % of control

CC(C)=CCOc1ccc2ccc(=O)oc2c1
inactive: dose: 4.0 mg/kg/injection, schedule: Q01DX009 (ip), vehicle: Klucel (hydroxypropylcellulose) (HPC) 100 % of control | dose: 8.0 mg/kg/injection, schedule: Q01DX009 (ip), vehicle: Klucel (hydroxypropylcellulose) (HPC) 98 % of control | dose: 16.0 mg/kg/injection, schedule: Q01DX009 (ip), vehicle: Klucel (hydroxypropylcellulose) (HPC) 108 % of control | dose: 32.0 mg/kg/injection, schedule: Q01DX009 (ip), vehicle: Klucel (hydroxypropylcellulose) (HPC) 90 % of control

C1OCN2CSCC12 (stereo not drawn)
inactive: dose: 100.0 mg/kg/injection, schedule: Q04DX002 (ip), vehicle: suspension in saline 110 % of control | dose: 600.0 mg/kg/injection, schedule: Q04DX002 (ip), vehicle: suspension in saline 117 % of control

O=S(=O)(O)c1cccc2cccc(Cl)c12
inactive: dose: 100.0 mg/kg/injection, schedule: Q04DX003 (ip), vehicle: saline 100 % of control | dose: 200.0 mg/kg/injection, schedule: Q04DX003 (ip), vehicle: saline 95 % of control | dose: 400.0 mg/kg/injection, schedule: Q04DX003 (ip), vehicle: saline 100 % of control

O=C(NC(NC(=O)c1ccc(Cl)cc1)C(Cl)(Cl)Cl)c1ccc(Cl)cc1
inactive: [5] 90 % of control | [6] 86 % of control | [7] 90 % of control

O=C(Cn1ccc(=O)[nH]c1=O)c1cccs1
inactive: [3] 90 % of control | [7] 100 % of control | [4] 86 % of control | [8] 95 % of control | [9] 100 % of control | dose: 400.0 mg/kg/injection, schedule: Q04DX003 (ip), vehicle: saline with Tween-80 95 % of control

NC(Cc1nn[nH]n1)C(=O)O (stereo not drawn)
inactive: dose: 100.0 mg/kg/injection, schedule: Q01DX009 (ip), vehicle: water 100 % of control | dose: 100.0 mg/kg/injection, schedule: Q04DX003 (ip), vehicle: water 97 % of control | dose: 200.0 mg/kg/injection, schedule: Q01DX009 (ip), vehicle: water 94 % of control | dose: 200.0 mg/kg/injection, schedule: Q04DX003 (ip), vehicle: water 96 % of control | dose: 400.0 mg/kg/injection, schedule: Q01DX009 (ip), vehicle: water 94 % of control | dose: 400.0 mg/kg/injection, schedule: Q04DX003 (ip), vehicle: water 90 % of control

Cc1cc(O)c(C(c2ccc(N(C)C)cc2Cl)c2c(O)cc(C)[nH]c2=O)c(=O)[nH]1
inactive: [2] 99 % of control | [3] 115 % of control

S=C(NNc1ccccc1)Nc1ccccc1
inactive: dose: 25.0 mg/kg/injection, schedule: Q01DX009 (ip), vehicle: Klucel (hydroxypropylcellulose) (HPC) 106 % of control | dose: 50.0 mg/kg/injection, schedule: Q01DX009 (ip), vehicle: Klucel (hydroxypropylcellulose) (HPC) 101 % of control | [1] 96 % of control

OCc1ccccc1[S+]1OCc2ccccc21 (stereo not drawn)
inactive: dose: 50.0 mg/kg/injection, schedule: Q01DX009 (ip), vehicle: other 104 % of control | dose: 100.0 mg/kg/injection, schedule: Q01DX009 (ip), vehicle: other 97 % of control | dose: 200.0 mg/kg/injection, schedule: Q01DX009 (ip), vehicle: other 108 % of control

C1CN2CCC1CC2
inactive: [10] 107 % of control | dose: 22.0 mg/kg/injection, schedule: Q01DX009 (ip), vehicle: saline with Tween-80 101 % of control | [11] 119 % of control | dose: 33.0 mg/kg/injection, schedule: Q01DX009 (ip), vehicle: saline with Tween-80 122 % of control

CS/C(=C\c1ccc2cc(C)ccc2[n+]1C)N1CCOCC1
inactive: dose: 1.56 mg/kg/injection, schedule: Q01DX009 (ip), vehicle: saline 112 % of control | dose: 3.12 mg/kg/injection, schedule: Q01DX009 (ip), vehicle: saline 119 % of control

Cc1c(Cl)cccc1NC(=O)Oc1ccc(Cl)cc1Cl
inactive: [6] 109 % of control | [7] 122 % of control | [8] 113 % of control

CCCCCCCCCSC(=S)N(C)NC(=O)c1ccccn1
inactive: [2] 98 % of control | [3] 98 % of control

CC(=O)CC(=O)c1ccccc1.CC(=O)CC(=O)c1ccccc1.CC(=O)CC(=O)c1ccccc1.[Co]
inactive: dose: 10.0 mg/kg/injection, schedule: Q01DX001 (ip), vehicle: Klucel (hydroxypropylcellulose) (HPC) 90 % of control | dose: 10.0 mg/kg/injection, schedule: Q04DX003 (ip), vehicle: Klucel (hydroxypropylcellulose) (HPC) 104 % of control | dose: 20.0 mg/kg/injection, schedule: Q01DX001 (ip), vehicle: Klucel (hydroxypropylcellulose) (HPC) 104 % of control | dose: 20.0 mg/kg/injection, schedule: Q04DX003 (ip), vehicle: Klucel (hydroxypropylcellulose) (HPC) 104 % of control | dose: 40.0 mg/kg/injection, schedule: Q01DX001 (ip), vehicle: Klucel (hydroxypropylcellulose) (HPC) 104 % of control | dose: 40.0 mg/kg/injection, schedule: Q04DX003 (ip), vehicle: Klucel (hydroxypropylcellulose) (HPC) 100 % of control

CCCCCCCCCCCCCCCCS(=O)(=O)N/N=C/C(=O)O
inactive: dose: 12.5 mg/kg/injection, schedule: Q01DX009 (ip), vehicle: other 116 % of control

CNC(=O)Oc1ccc2ccccc2c1
inactive: [3] 111 % of control | [4] 113 % of control | [9] 103 % of control

CC(C)C[C@H](O)C(=O)O
inactive: dose: 25.0 mg/kg/injection, schedule: Q01DX009 (ip), vehicle: saline 95 % of control | dose: 44.0 mg/kg/injection, schedule: Q01DX009 (ip), vehicle: saline 109 % of control | dose: 66.0 mg/kg/injection, schedule: Q01DX009 (ip), vehicle: saline 109 % of control | [12] 95 % of control and 120 % of control | dose: 150.0 mg/kg/injection, schedule: Q01DX009 (ip), vehicle: saline 118 % of control | [13] 95 % of control

C=CC(CO)N1CC1 (stereo not drawn)
inactive: dose: 6.25 mg/kg/injection, schedule: Q04DX003 (ip), vehicle: saline with Tween-80 100 % of control | dose: 12.5 mg/kg/injection, schedule: Q04DX003 (ip), vehicle: saline with Tween-80 112 % of control | [5] 104 % of control

Nc1ccc(CCc2ccccc2)cc1
inactive: [10] 122 % of control | [11] 100 % of control | [2] 109 % of control | dose: 56.25 mg/kg/injection, schedule: Q04DX003 (ip), vehicle: saline with Tween-80 108 % of control | dose: 75.0 mg/kg/injection, schedule: Q01DX009 (ip), vehicle: saline with Tween-80 118 % of control | dose: 112.5 mg/kg/injection, schedule: Q04DX003 (ip), vehicle: saline with Tween-80 112 % of control

O=c1cc(-c2cccs2)ss1
inactive: [11] 106 % of control | [2] 97 % of control | [3] 86 % of control and 106 % of control | [7] 106 % of control | [4] 116 % of control | [8] 92 % of control

CNC1C(OC2C(OC3C(O)C(O)C(O)C(O)C3O)OC(C)C2(O)CO)OC(CO)C(O)C1O (stereo not drawn) (tested in a mixture with another compound)
inactive: [12] 100 % of control | [13] 100 % of control | dose: 400.0 mg/kg/injection, schedule: Q01DX009 (ip), vehicle: saline 100 % of control
